Data: article PMC5698418 (Nature Communications, 2017)

What was measured:
GluA1 mRNA = GluA1 mRNA by RT-qPCR in cortical neurons; type: cell-based, mouse; conditions: BDNF plus AK-7 16.7 µM vs BDNF plus vehicle, 6 h
Method: After experimental treatment, total RNA was isolated from primary cortical neuron cultures using the TRIzol method (Invitrogen). The concentration of total RNA was measured using a NanoDrop 1000 spectrophotometer (Thermo Fisher Scientific, Rockford, IL) and first-strand complementary DNA (cDNA) was synthesized using the iScript cDNA Synthesis Kit (Bio-Rad, Hercules, CA). Real-time PCRs were performed using gene-specific primers and monitored by quantification of SYBR Green I fluorescence using a Bio-Rad CFX96 Real-Time Detection System. Expression was normalized against Gapdh expression. The relative quantification from at least three biological replicates was performed using the comparative cycle threshold (∆∆CT) method.
Primers for real-time reverse transcription PCR experiments were: Arc, 5′-[…]-3′ (forward) and 5′-[…]-3′ (reverse); Map2, 5′-[…]-3′ (forward) and 5′-[…]-3′ (reverse); GluA1, 5′-[…]-3′ (forward) and 5′-[…]-3′ (reverse); GluA2, 5′-[…]-3′ (forward) and 5′-[…]-3′ (reverse); Gapdh, 5′-[…]-3′ (forward) and 5′-[…]-3′ (reverse).
Supplementary Fig. 6. […] Bars represent mean fold-change and error bars indicate range from five biological replicates.

surface GluA1 = assay: Surface AMPAR (GluA1) imaging along dendrites; type: cell-based, mouse; conditions: 16.7 µM, 6 h with BDNF, vs untreated and BDNF alone; for BDNF: BDNF alone vs baseline
Method: Our procedure to label surface AMPARs containing the GluA1 subunit was adapted from two reports[14],[61]. Precisely, DIV14 primary cortical neurons cultured on coverslips were rinsed once with room temperature PBS^MC (PBS containing 0.5 mM CaCl2, 1 mM MgCl2, and 4% sucrose). Live cells were then incubated for 30 min at room temperature with GluA1 primary antibody solution (PBS^MC with antibody against the extracellular N-terminus of GluA1 (EMD Millipore Corp, clone RH95, 5.0 µg ml^−1)). Next, cells were rinsed twice with ice-cold PBS^MC followed by fixation with 4% paraformaldehyde + 4% sucrose solution for 15 min at room temperature. After fixation, neurons were washed with regular PBS and then incubated overnight with Map2 primary antibody solution (PBS with 0.125% Triton X-100, 5% normal goat serum, and anti-Map2 antibody) to label dendrites. Next day, coverslips were washed with PBS, incubated with appropriate secondary antibodies for 1 h at room temperature, and finally mounted on glass slides with ProLong Antifade reagent (Invitrogen).
Quantification of surface GluA1 puncta was performed according to the following strategy. First, overlapping digital images of GluA1 and Map2 immunostainings were collected using a Zeiss AxioObserver Z1 inverted microscope and ×63 oil immersion objective. Second, thresholding and segmentation based on the Map2 images was used to remove GluA1 signals outside of dendritic processes. Importantly, the same background/foreground cutoff threshold was used for images of all experimental conditions. Third, the length of dendrites for each image set was measured and recorded. Finally, distinct GluA1 foreground objects along dendrites >5 pixels were counted using the particle analysis tool in ImageJ and presented as the average number of GluA1 puncta per µm of dendrite length for each experimental condition.

Arc protein = assay: Western blot of total Arc protein in primary cortical neurons; type: cell-based, mouse; conditions: BDNF 6 h supplemented with compound
Method: Forebrains of E16.5 C57BL/6 mouse embryos were dissected and then dissociated in trypsin solution for 15 min followed by three washes with phosphate-buffered saline (PBS). Single-cell suspension was achieved by gentle pipet trituration. Neurons were seeded in poly-L-lysine/laminin-coated six-well plates at a density of 2 × 10^6 per well and maintained in neurobasal medium containing B27 supplement (2%, Invitrogen, Grand Island, NY), penicillin (50 units ml^−1, Invitrogen), streptomycin (50 µg ml^−1, Invitrogen), and glutamine (1 mM, Sigma). For experiments involving BDNF (EMD Millipore Corps, Billerica, MA), the stock solution (2 ng µl^−1 in water) was added directly to the culture medium at a final concentration of 100 ng ml^−1 for the indicated period of time.
For western blot analyses, cells were collected by scraping in ice-cold radioimmunoprecipitation assay (RIPA) buffer (50 mM Tris-HCl (pH 8.0), 300 mM NaCl, 0.5% Igepal-630, 0.5% deoxycholic acid, 0.1% SDS, 1 mM EDTA) supplemented with a cocktail of protease inhibitors (Complete Protease Inhibitor without EDTA, Roche Applied Science, Indianapolis, IN) and phosphatase inhibitors (phosphatase inhibitor cocktail A, Santa Cruz Biotechnology). One volume of 2× Laemmli buffer (100 mM Tris-HCl (pH 6.8), 4% SDS, 0.15% bromophenol blue, 20% glycerol, 200 mM β-mercaptoethanol) was added and the extracts were boiled for 5 min. Samples were adjusted to an equal concentration after protein concentrations were determined using the BCA assay (Pierce, Thermo Fisher Scientific). Lysates were separated using SDS–PAGE and transferred to a nitrocellulose membrane. After transfer, the membrane was blocked in TBST (Tris-buffered saline + 0.1% Tween 20) supplemented with 5% nonfat powdered milk and probed with the indicated primary antibody at 4 °C overnight. After washing with TBST, the membrane was incubated with the appropriate secondary antibody and visualized using enhanced chemiluminescence (ECL) reagents according to the manufacturer’s guidelines (Pierce, Thermo Fisher Scientific).
The following procedure was used to quantify western blots. First, equal quantity of protein lysate was analyzed by SDS–PAGE for each biological replicate. Second, the exposure time of the film to the ECL chemiluminescence was the same for each biological replicate. Third, all the exposed films were scanned on a Brother MFC-J485DW scanner in grayscale at a resolution of 300 dpi. Fourth, the look-up table (LUT) of the scanned tiff images was inverted and the intensity of each band was individually measured using the selection tool and the histogram function in Adobe Photoshop CC 2015 software. […]

HDAC2 = target: T1, HDAC2 (Homo sapiens, UniProt Q92769); assay: Biochemical HDAC assay (BPS Bioscience), HDAC2; conditions: 25 µM
T1 construct: purchased BPS Bioscience (San Diego, CA), contract assay service
T1 sequence (Q92769 whole entry): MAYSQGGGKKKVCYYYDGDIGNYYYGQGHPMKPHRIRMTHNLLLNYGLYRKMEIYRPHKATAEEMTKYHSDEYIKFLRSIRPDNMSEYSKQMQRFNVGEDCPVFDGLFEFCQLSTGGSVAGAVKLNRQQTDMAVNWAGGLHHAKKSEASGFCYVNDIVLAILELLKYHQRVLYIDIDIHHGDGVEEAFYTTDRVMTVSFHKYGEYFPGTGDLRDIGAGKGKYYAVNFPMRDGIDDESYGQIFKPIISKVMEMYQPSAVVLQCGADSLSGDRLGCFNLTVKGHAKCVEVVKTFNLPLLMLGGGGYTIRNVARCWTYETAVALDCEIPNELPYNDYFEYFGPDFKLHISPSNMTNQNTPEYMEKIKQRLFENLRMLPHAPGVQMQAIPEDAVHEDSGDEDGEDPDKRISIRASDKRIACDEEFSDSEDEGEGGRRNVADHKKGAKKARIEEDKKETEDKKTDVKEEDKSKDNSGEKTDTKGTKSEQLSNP

HDAC3 = target: T2, HDAC3 (Homo sapiens, UniProt O15379); assay: Biochemical HDAC assay (BPS Bioscience), HDAC3; conditions: 25 µM
T2 construct: purchased BPS Bioscience (San Diego, CA), contract assay service
T2 sequence (O15379 whole entry): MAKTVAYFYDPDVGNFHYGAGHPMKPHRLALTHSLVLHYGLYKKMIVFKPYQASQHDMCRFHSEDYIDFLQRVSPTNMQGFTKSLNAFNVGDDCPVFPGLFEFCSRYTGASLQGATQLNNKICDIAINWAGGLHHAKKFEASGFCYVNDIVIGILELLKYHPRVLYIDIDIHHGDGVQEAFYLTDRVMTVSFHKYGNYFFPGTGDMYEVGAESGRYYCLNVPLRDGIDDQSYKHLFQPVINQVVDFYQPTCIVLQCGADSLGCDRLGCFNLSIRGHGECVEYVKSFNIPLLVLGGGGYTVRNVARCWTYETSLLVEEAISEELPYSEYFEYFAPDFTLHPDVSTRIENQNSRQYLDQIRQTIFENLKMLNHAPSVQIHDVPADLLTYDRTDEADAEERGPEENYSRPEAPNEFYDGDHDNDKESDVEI
T2 sequence (Q9Y618 395-489 partner limits assumed): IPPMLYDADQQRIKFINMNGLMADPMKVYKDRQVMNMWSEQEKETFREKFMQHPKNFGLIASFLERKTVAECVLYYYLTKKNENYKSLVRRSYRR

[1] = tested on: acetyl-H3K9 in dentate gyrus; assay: Acetyl-H3K9 immunohistochemistry in dentate gyrus after intraperitoneal injection; type: in vivo, mouse; conditions: 30 mg kg−1 i.p., 3 h, home cage
Method: Male mice (C57BL/6 strain) were received as 6-weeks old and habituated to their home cage as trios for 2 weeks before conducting the experiments. During the habituation time period, mice were kept on a light–dark cycle with minimal disruption and unrestricted access to food and water. On experiment day, mice from the same cage were taken and randomly subjected to intraperitoneal injection of vehicle (25% Kolliphor EL (Sigma-Aldrich, C5135), 10% DMSO) or AK-7 (30 mg kg^−1) solution and immediately placed back in their home cage or transferred to a novel environment. […]
The following approach was adopted to quantify the number of Arc-positive cell bodies and average acetyl-H3K9 immunostaining pixel intensity in dentate gyrus. First, complete dentate gyrus overlapping grayscale images of DAPI fluorescence and Arc or acetyl-H3K9 immunostaining were collected using a ×20 objective and Nikon Eclipse 90i upright microscope equipped with a motorized stage and image stitching capability. Second, the boundary of the dentate gyrus based on the DAPI fluorescence was determined in each image set with the ImageJ wand tool. Finally, this information was used for image segmentation and quantification of Arc-positive cell bodies or average acetyl-H3K9 immunostaining pixel intensity within each dentate gyrus images. […]

## O=C(Nc1cccc(Br)c1)c1cccc(S(=O)(=O)N2CCCCCC2)c1 [AK-7]
GluA1 mRNA
  GluA1 mRNA expression: does not affect
Surface GluA1
  surface GluA1 puncta per dendrite µm: significant decrease in surface GluA1 levels
Arc protein
  total Arc protein vs BDNF plus vehicle control (western blot, Arc/β-actin): significantly more Arc protein
HDAC2
  inhibitory activity toward HDAC2: failed to show any inhibitory activity
HDAC3
  inhibitory activity toward HDAC3: failed to show any inhibitory activity
[1]
  acetyl-H3K9 immunofluorescence staining intensity in dentate gyrus vs vehicle: small but statistically significant increase
